# pKi: −log10 of the molar value.
# Biological target: T1, human PTHR1 receptor (Homo sapiens, UniProt Q03431)
# T1 construct: purchased Eurofins HTS030M
# T1 sequence (Q03431 27-593): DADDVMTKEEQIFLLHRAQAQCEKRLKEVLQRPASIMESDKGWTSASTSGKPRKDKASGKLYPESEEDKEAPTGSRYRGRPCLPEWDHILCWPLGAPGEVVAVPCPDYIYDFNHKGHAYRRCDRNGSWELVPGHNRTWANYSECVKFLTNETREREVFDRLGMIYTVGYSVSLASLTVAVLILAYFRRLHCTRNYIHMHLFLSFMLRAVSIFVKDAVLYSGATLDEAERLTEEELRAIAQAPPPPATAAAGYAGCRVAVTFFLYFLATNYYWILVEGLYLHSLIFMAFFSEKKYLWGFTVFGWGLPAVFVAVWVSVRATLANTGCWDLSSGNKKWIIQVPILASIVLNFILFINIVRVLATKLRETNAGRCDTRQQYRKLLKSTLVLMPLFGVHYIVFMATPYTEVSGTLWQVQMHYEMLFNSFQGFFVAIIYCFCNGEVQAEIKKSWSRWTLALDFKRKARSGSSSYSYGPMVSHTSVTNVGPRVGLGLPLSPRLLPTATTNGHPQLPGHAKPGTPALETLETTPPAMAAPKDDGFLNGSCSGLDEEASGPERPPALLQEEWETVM
# Test: Competitive antagonist binding assay for hPTH-R1 (radioactive competition binding, SPA beads)
# Conditions: human PTHR1 membranes, [125I]-[Nle8,18,Tyr34]-PTH(1-34) 0.2 nM, 90 minutes at room temperature; read-out: hPTHR1 Ki
# Method in brief: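 Human PTHR1 membranes on SPA beads incubated 90 min at room temperature with compound (typically 0-10,000 nM final) and 0.2 nM [125I]-[Nle8,18,Tyr34]-PTH(1-34) in HEPES buffer with MgCl2, CaCl2, BSA, Triton X-100 and protease inhibitors, pH 7.4. Scintillation signal read; Ki values derived.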
row,Compound,pKi
1,"CCN1C(=O)N(c2c(F)cc(N3CC[C@H](N)C3)cc2F)c2cc(Cl)ccc2-c2cc(Cl)cnc21 [1-43, 10-{4-[(3S)-3-aminopyrrolidin-1-yl]-2,6-difluorophenyl}-4,13-dichloro-8-ethyl-6,8,10-triazatricyclo[9.4.0.0^2,7]pentadeca-1(11),2(7),3,5,12,14-hexaen-9-one]",> 7.00
2,"CCN1C(=O)N(c2c(F)cc(NCCNCCO)cc2F)c2cc(C#N)ccc2-c2cc(C(F)(F)F)cnc21 [1-98, 10-[2,6-difluoro-4-({2-[(2-hydroxyethyl)amino]ethyl}amino)phenyl]-8-ethyl-9-oxo-4-(trifluoromethyl)-6,8,10-triazatricyclo[9.4.0.0^2,7]pentadeca-1(11),2(7),3,5,12,14-hexaene-13-carbonitrile]",> 7.00
3,"CCN1C(=O)N(c2c(F)cc(NCCNC3CCOC3)cc2F)c2cc(Cl)ccc2-c2cc(F)cnc21 (centres unmarked) [1-20, 13-chloro-10-[2,6-difluoro-4-({2-[(oxolan-3-yl)amino]ethyl}amino)phenyl]-8-ethyl-4-fluoro-6,8,10-triazatricyclo[9.4.0.0^2,7]pentadeca-1(11),2(7),3,5,12,14-hexaen-9-one]",> 7.00
4,"CCN1C(=O)N(c2c(F)cc(NCCNCCNC(=O)OC)cc2F)c2cc(C#N)ccc2-c2cc(Cl)cnc21 [1-167, Methyl N-[2-({2-[(4-{4-chloro-13-cyano-8-ethyl-9-oxo-6,8,10-triazatricyclo[9.4.0.0^2,7]pentadeca-1(11),2(7),3,5,12,14-hexaen-10-yl}-3,5-difluorophenyl)amino]ethyl}amino)ethyl]carbamate]",> 7.00
5,"CCN1C(=O)N(c2c(F)cc(NCCNCC(=O)O)cc2F)c2cc(C#N)ccc2-c2cc(C(F)(F)F)cnc21 [1-227, 2-{[2-({4-[13-cyano-8-ethyl-9-oxo-4-(trifluoromethyl)-6,8,10-triazatricyclo[9.4.0.0^2,7]pentadeca-1(11),2(7),3,5,12,14-hexaen-10-yl]-3,5-difluorophenyl}amino)ethyl]amino}acetic acid]",> 7.00
6,"CCN1C(=O)N(c2c(F)cc(NCCNCCO)cc2F)c2c(ccc(Cl)c2F)-c2cc(Cl)cnc21 [3-10, 4,13-dichloro-10-[2,6-difluoro-4-({2-[(2-hydroxyethyl)amino]ethyl}amino)phenyl]-8-ethyl-12-fluoro-6,8,10-triazatricyclo[9.4.0.0^2,7]pentadeca-1(11),2(7),3,5,12,14-hexaen-9-one]",> 7.00
7,"CCN1C(=O)N(c2c(F)cc(NCCN[C@H]3C[C@H](O)C3)cc2F)c2cc(C#N)ccc2-c2cc(F)cnc21 [1-222, 10-{2,6-difluoro-4-[(2-{[(1r,3r)-3-hydroxycyclobutyl]amino}ethyl)amino]phenyl}-8-ethyl-4-fluoro-9-oxo-6,8,10-triazatricyclo[9.4.0.0^2,7]pentadeca-1(11),2(7),3,5,12,14-hexaene-13-carbonitrile]",> 7.00
8,"CCN1C(=O)N(c2c(F)cc(NCCNCCN)cc2F)c2cc(C#N)ccc2-c2cc(F)cnc21 [1-237, 10-[4-({2-[(2-aminoethyl)amino]ethyl}amino)-2,6-difluorophenyl]-8-ethyl-4-fluoro-9-oxo-6,8,10-triazatricyclo[9.4.0.0^2,7]pentadeca-1(11),2(7),3,5,12,14-hexaene-13-carbonitrile]",> 7.00
9,"CCN1C(=O)N(c2c(F)cc(NCCNC[C@@H](O)CO)cc2F)c2cc(C#N)ccc2-c2cc(Cl)cnc21 [1-183, 4-chloro-10-{4-[(2-{[(2R)-2,3-dihydroxypropyl]amino}ethyl)amino]-2,6-difluorophenyl}-8-ethyl-9-oxo-6,8,10-triazatricyclo[9.4.0.0^2,7]pentadeca-1(11),2(7),3,5,12,14-hexaene-13-carbonitrile]",> 7.00
10,"CN1C(=O)N(c2c(F)cc(NCCNCCCO)cc2F)c2cc(C#N)ccc2-c2cc(Cl)cnc21 [1-197, 4-chloro-10-[2,6-difluoro-4-({2-[(3-hydroxypropyl)amino]ethyl}amino)phenyl]-8-methyl-9-oxo-6,8,10-triazatricyclo[9.4.0.0^2,7]pentadeca-1(11),2(7),3,5,12,14-hexaene-13-carbonitrile]",> 7.00

# Results, then the compound that gave them:
row,pKi,Compound
1,> 7.00,"3-({2-[(4-{4-chloro-13-cyano-8-methyl-9-oxo-6,8,10-triazatricyclo[9.4.0.0^2,7]pentadeca-1(11),2(7),3,5,12,14-hexaen-10-yl}-3,5-difluorophenyl)amino]ethyl}amino)propanoic acid [1-217]"
2,> 7.00,"CNCCNc1cc(F)c(N2C(=O)N(C)c3ncc(Cl)cc3-c3c(F)cc(C#N)cc32)c(F)c1 [1-115, 4-chloro-10-(2,6-difluoro-4-{[2-(methylamino)ethyl]amino}phenyl)-15-fluoro-8-methyl-9-oxo-6,8,10-triazatricyclo[9.4.0.0^2,7]pentadeca-1(11),2(7),3,5,12,14-hexaene-13-carbonitrile]"
3,> 7.00,"CCCN1C(=O)N(c2c(F)cc(NCCNCCO)cc2F)c2cc(C#N)ccc2-c2cc(Cl)cnc21 [1-120, 4-chloro-10-[2,6-difluoro-4-({2-[(2-hydroxyethyl)amino]ethyl}amino)phenyl]-9-oxo-8-propyl-6,8,10-triazatricyclo[9.4.0.0^2,7]pentadeca-1(11),2(7),3,5,12,14-hexaene-13-carbonitrile]"
4,> 7.00,"CCNCCNc1cc(F)c(N2C(=O)N(CC)c3ncc(Cl)cc3-c3ccc(C#N)cc32)c(F)c1 [1-133, 4-chloro-8-ethyl-10-(4-{[2-(ethylamino)ethyl]amino}-2,6-difluorophenyl)-9-oxo-6,8,10-triazatricyclo[9.4.0.0^2,7]pentadeca-1(11),2(7),3,5,12,14-hexaene-13-carbonitrile]"
5,6.00 to 7.00,"CCN1C(=O)N(c2c(F)cc(NCCNCC#N)cc2F)c2cc(C#N)ccc2-c2cc(Cl)cnc21 [1-160, 4-chloro-10-[4-({2-[(cyanomethyl)amino]ethyl}amino)-2,6-difluorophenyl]-8-ethyl-9-oxo-6,8,10-triazatricyclo[9.4.0.0^2,7]pentadeca-1(11),2(7),3,5,12,14-hexaene-13-carbonitrile]"
6,> 7.00,"CCN1C(=O)N(c2c(F)cc(NCCNCCO)cc2F)c2cc(C#N)cc(F)c2-c2cc(Cl)cnc21 [1-100, 4-chloro-10-[2,6-difluoro-4-({2-[(2-hydroxyethyl)amino]ethyl}amino)phenyl]-8-ethyl-15-fluoro-9-oxo-6,8,10-triazatricyclo[9.4.0.0^2,7]pentadeca-1(11),2(7),3,5,12,14-hexaene-13-carbonitrile]"
7,6.00 to 7.00,"CCN1C(=O)N(c2c(F)cc(N3CC(NCCO)C3)cc2F)c2cc(C#N)ccc2-c2cc(F)cnc21 [1-124, 10-(2,6-difluoro-4-{3-[(2-hydroxyethyl)amino]azetidin-1-yl}phenyl)-8-ethyl-4-fluoro-9-oxo-6,8,10-triazatricyclo[9.4.0.0^2,7]pentadeca-1(11),2(7),3,5,12,14-hexaene-13-carbonitrile]"
8,> 7.00,"CCN1C(=O)N(c2c(F)cc(NCCNC)cc2F)c2cc(Cl)cc(F)c2-c2cc(Cl)cnc21 [1-61, 4,13-dichloro-10-(2,6-difluoro-4-{[2-(methylamino)ethyl]amino}phenyl)-8-ethyl-15-fluoro-6,8,10-triazatricyclo[9.4.0.0^2,7]pentadeca-1(11),2(7),3,5,12,14-hexaen-9-one]"
9,> 7.00,"CCN1C(=O)N(c2ncc(NCCNC3CCOCC3)cc2F)c2cc(Cl)ccc2-c2cc(Cl)cnc21 [2-14, 4,13-dichloro-8-ethyl-10-[3-fluoro-5-({2-[(oxan-4-yl)amino]ethyl}amino)pyridin-2-yl]-6,8,10-triazatricyclo[9.4.0.0^2,7]pentadeca-1(11),2(7),3,5,12,14-hexaen-9-one]"
10,> 7.00,"CCN1C(=O)N(c2c(F)cc(NCCNCCOC)cc2F)c2cc(Cl)ccc2-c2cc(Cl)cnc21 [1-74, 4,13-dichloro-10-[2,6-difluoro-4-({2-[(2-methoxyethyl)amino]ethyl}amino)phenyl]-8-ethyl-6,8,10-triazatricyclo[9.4.0.0^2,7]pentadeca-1(11),2(7),3,5,12,14-hexaen-9-one]"
11,> 7.00,"CCN1C(=O)N(c2c(F)cc(NCCNC[C@@H]3CCC(=O)N3)cc2F)c2cc(C#N)ccc2-c2cc(Cl)cnc21 [1-174, 4-chloro-10-(2,6-difluoro-4-{[2-({[(2S)-5-oxopyrrolidin-2-yl]methyl}amino)ethyl]amino}phenyl)-8-ethyl-9-oxo-6,8,10-triazatricyclo[9.4.0.0^2,7]pentadeca-1(11),2(7),3,5,12,14-hexaene-13-carbonitrile]"
12,> 7.00,"CCN1C(=O)N(c2c(F)cc(NCCNCCF)cc2F)c2cc(Cl)ccc2-c2cc(Cl)cnc21 [1-59, 4,13-dichloro-10-[2,6-difluoro-4-({2-[(2-fluoroethyl)amino]ethyl}amino)phenyl]-8-ethyl-6,8,10-triazatricyclo[9.4.0.0^2,7]pentadeca-1(11),2(7),3,5,12,14-hexaen-9-one]"
13,> 7.00,"10-[4-({2-[(3-amino-2-hydroxypropyl)amino]ethyl}amino)-2,6-difluorophenyl]-4-chloro-8-ethyl-9-oxo-6,8,10-triazatricyclo[9.4.0.0^2,7]pentadeca-1(11),2(7),3,5,12,14-hexaene-13-carbonitrile [1-188]"
